ChEMBL document CHEMBL1133249, “Combined tachykinin receptor antagonist: synthesis and stereochemical structure-activity relationships of novel morpholine analogues” (Bioorg Med Chem Lett, 2000)

Legend:
[1] = biological target: T1, Neuromedin-K receptor (Cavia porcellus, UniProt P30098); test: The compound was evaluated in vitro for its ability to displace [3H]SP from Tachykinin receptor 3 of male guinea pig lung membrane; type: tissue-based
T1 sequence (P30098 whole entry): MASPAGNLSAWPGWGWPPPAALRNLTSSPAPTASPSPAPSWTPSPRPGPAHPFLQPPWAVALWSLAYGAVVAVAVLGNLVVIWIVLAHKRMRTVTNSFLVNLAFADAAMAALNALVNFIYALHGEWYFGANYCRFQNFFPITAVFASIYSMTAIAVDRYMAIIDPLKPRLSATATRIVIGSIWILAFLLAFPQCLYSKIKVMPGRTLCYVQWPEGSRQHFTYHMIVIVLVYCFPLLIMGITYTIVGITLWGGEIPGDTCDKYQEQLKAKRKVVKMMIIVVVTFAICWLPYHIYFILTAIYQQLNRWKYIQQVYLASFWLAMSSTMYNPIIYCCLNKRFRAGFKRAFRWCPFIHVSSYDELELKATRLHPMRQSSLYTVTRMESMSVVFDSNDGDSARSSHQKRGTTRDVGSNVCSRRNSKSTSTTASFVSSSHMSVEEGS

[2] = biological target: T2, Substance-K receptor (Cavia porcellus, UniProt Q64077); test: The compound was evaluated in vitro for its ability to displace [3H]SP from Tachykinin receptor 2 of male guinea pig lung membrane; type: tissue-based
T2 sequence (Q64077 whole entry): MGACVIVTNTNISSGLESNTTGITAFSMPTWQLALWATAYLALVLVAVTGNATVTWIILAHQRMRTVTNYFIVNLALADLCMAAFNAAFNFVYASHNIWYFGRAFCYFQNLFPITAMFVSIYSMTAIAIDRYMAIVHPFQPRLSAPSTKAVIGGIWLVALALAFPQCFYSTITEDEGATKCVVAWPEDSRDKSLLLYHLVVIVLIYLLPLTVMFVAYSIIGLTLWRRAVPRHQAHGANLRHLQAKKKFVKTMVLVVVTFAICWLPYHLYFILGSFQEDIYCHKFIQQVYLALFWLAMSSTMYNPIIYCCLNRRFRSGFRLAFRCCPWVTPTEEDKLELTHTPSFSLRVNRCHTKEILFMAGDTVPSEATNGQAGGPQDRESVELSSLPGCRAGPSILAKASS

[3] = biological target: Substance-P receptor (Cavia porcellus, UniProt P30547); test: The compound was evaluated in vitro for its ability to displace [3H]SP from Tachykinin receptor 1 of male guinea pig lung membrane; type: tissue-based
[4] = system: Cavia porcellus; test: Inhibitory effect was evaluated after intravenous administration on bronchoconstriction induced by NKA receptor in guinea pigs; type: functional; settings: read-out: ID50 (the source's name)
[5] = system: Cavia porcellus; test: Inhibitory effect was evaluated after intravenous administration on bronchoconstriction induced by NKB receptor in guinea pigs; type: functional; settings: read-out: ID50 (the source's name)
[6] = system: Cavia porcellus; test: Inhibitory effect of compound was evaluated after intravenous administration on SP-induced plasma protein extravasation, mediated by NK1 receptors in guinea pig airways; type: functional; settings: read-out: ID50 (the source's name)

Sequence of Substance-P receptor (P30547 whole entry): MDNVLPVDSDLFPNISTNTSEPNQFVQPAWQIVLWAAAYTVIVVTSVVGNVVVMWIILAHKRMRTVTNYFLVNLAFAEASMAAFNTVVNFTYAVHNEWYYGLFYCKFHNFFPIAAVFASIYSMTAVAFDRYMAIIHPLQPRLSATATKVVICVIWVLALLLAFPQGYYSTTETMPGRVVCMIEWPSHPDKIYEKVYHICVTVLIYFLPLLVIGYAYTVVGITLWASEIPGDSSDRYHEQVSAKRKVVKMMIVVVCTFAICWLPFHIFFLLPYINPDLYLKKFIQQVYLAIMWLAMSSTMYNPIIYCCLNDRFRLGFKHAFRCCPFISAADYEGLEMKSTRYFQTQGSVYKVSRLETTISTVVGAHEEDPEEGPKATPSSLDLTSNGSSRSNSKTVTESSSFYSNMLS

IC50 [1] | IC50 [2] | IC50 [3] | SMILES | ED50 [4] | ED50 [5] | ED50 [6]
11 nM | 59 nM | 220 nM | COc1cc(C(=O)N2CCO[C@](CCN3CCC4(CC3)c3ccccc3C[S@@+]4[O-])(c3ccc(Cl)c(Cl)c3)C2)cc(OC)c1OC | – | – | –
520 nM | > 1000 nM | > 1000 nM | COc1cc(C(=O)N2CCO[C@@](CCN3CCC4(CC3)c3ccccc3C[S@+]4[O-])(c3ccc(Cl)c(Cl)c3)C2)cc(OC)c1OC | – | – | –
0.72 nM | 3.1 nM | 21 nM | COc1cc(C(=O)N2CCO[C@](CCN3CCC4(CC3)c3ccccc3C[S@+]4[O-])(c3ccc(Cl)c(Cl)c3)C2)cc(OC)c1OC | – | – | –
2.7 nM | 6.8 nM | 40 nM | COc1cc(C(=O)N2CCO[C@](CCN3CCC4(CC3)c3ccccc3C[C@@H]4O)(c3ccc(Cl)c(Cl)c3)C2)cc(OC)c1OC | – | – | –
> 1000 nM | > 1000 nM | > 1000 nM | COc1cc(C(=O)N2CCO[C@@](CCN3CCC4(CC3)c3ccccc3C[C@@H]4O)(c3ccc(Cl)c(Cl)c3)C2)cc(OC)c1OC | – | – | –
17 nM | 45 nM | 270 nM | COc1cc(C(=O)N2CCO[C@](CCN3CCC4(CC3)c3ccccc3C[C@H]4O)(c3ccc(Cl)c(Cl)c3)C2)cc(OC)c1OC | – | – | –
– | – | – | COc1cc(C(=O)N2CCOC(CCN3CCC4(CC3)c3ccccc3C[S+]4[O-])(c3ccc(Cl)c(Cl)c3)C2)cc(OC)c1OC.Cl (configuration not stated) | 0.04 mg/kg | 0.063 mg/kg | 0.33 mg/kg
660 nM | > 1000 nM | > 1000 nM | COc1cc(C(=O)N2CCO[C@@](CCN3CCC4(CC3)c3ccccc3C[S@@+]4[O-])(c3ccc(Cl)c(Cl)c3)C2)cc(OC)c1OC (racemic) | – | – | –
> 1000 nM | > 1000 nM | > 1000 nM | COc1cc(C(=O)N2CCO[C@@](CCN3CCC4(CC3)c3ccccc3C[C@H]4O)(c3ccc(Cl)c(Cl)c3)C2)cc(OC)c1OC (racemic) | – | – | –
